Results reported in US12110527B2, “Production of symmetrical bolaform sophorosides” (priority 2018, dated 2024).

Test system: S. bombicola Δcyp52M1Δfao1 strain
Assay: Shake flask cultivation fed with different primary fatty alcohols: follow-up of growth (CFU) and glucose consumption
Format: cell-based, Starmerella bombicola
Conditions: for glucose consumption rate: alcohol fed at 1.8 (w/v) % after 48 h of cultivation, shake flask
Experimental: Production experiments using S. bombicola were performed using the production medium described by Lang et al. (2000). For shake flask experiments, 5 ml tube cultures were set up 24 h (30° C.), before transferring to shake flasks (4% inoculation). Production experiments were executed with feeding of fatty alcohols: oleyl alcohol, stearyl alcohol, lauryl alcohol, myristyl alcohol or cetyl alcohol which were added after 48 h of cultivation. The Δcyp52M1Δfao1 strain was also assessed without addition of the hydrophobic alcohol. For every production experiment, cultivation was stopped when glucose was depleted from the medium. Experiments were performed in duplicate, and average values with standard deviations are presented.
Optical density (OD) of cultures was measured at 600 nm using the Jasco V 630 Bio spectrophotometer (Jasco Europe) of 1 mL samples diluted with physiological solution (9 g/L NaCl). The viability of yeast cells in cultivation experiments was assessed by determining colony forming units (CFUs) which were expressed as the average logarithm of CFUs per culture volume as log (CFU/mL) (Saerens et al., 2011). Alternatively, Cell Dry Weight (CDW) was determined by centrifuging 1 mL fermentation samples at 14000 rpm for 5 min in tared Eppendorf tubes, and subsequently washing the cell pellets twice with 1 mL physiological solution. The remaining cell pellet was put into a 70° C. oven for 5 days and then weighed afterwards. The CDW (g/L) was calculated after subtraction of the empty weight of the Eppendorf tube.
Glucose concentrations were determined using the 2700 Select Biochemistry Analyser (YSI Inc.) or using Ultra Performance Liquid Chromatography (Waters Acquity H-Class UPLC), coupled with an Evaporative Light Scattering Detector (Waters Acquity ELSD Detector) (UPLC-ELSD). For the UPLC analysis, an Acquity UPLC BEH Amide column (130 Å, 1.7 μm, 2.1×100 mm) (Waters) was used at 35° C. and an isocratic flow rate of 0.5 mL/min of 75% acetonitrile and 0.2% triethylamine (TEA) was applied (5 min/sample). For the ELS detection, the nebulizer was cooled to 15° C. and the drift tube was kept at a temperature of 50° C. […] To express glucose consumption, a linear curve was fitted through the obtained glucose concentrations by UPLC-ELSD, and the respective slope was taken and denoted as the glucose consumption rate (g/L·h).
When two different groups were compared, the Welch's test was performed with a 95% confidence level using GraphPad Prism 7.04 software. For multiple group comparisons, analysis of variance (ANOVA) with Bonferroni's multiple comparison test correction with a 95% confidence level using GraphPad Prism 7.04 software was employed. For parameters pH, CFU, OD and glucose consumption, average values were taken when the yeast cells attained their stationary phase (after 48 h of cultivation). In general, data represented in graphs are the average and standard deviation of two experimental replicates (unless stated otherwise).
Unexpectedly, no successful uniform production of either bola SSs or alkyl SSs was obtained for the Δcyp52M1Δfao1 strain when feeding with oleyl alcohol. Instead, mixtures of both were found, although the majority of the novel glycolipids were (acetylated) bola SSs and only minor amounts of alkyl SS were produced. The production of tetra-acetylated bola SS was unexpected, since the CYP52M1 enzyme was thought to be the only enzyme involved in glycolipid production thus far in S. bombicola. To assess the influence on the chain lengths of primary alcohols to the glycolipid production, different substrates were fed to the Δcyp52M1Δfao1 strain. The parental strain Δcyp52M1 was assessed in parallel. Medium and long-chain alcohols were selected between a chain length of 12 and 18, similarly as reported by Davila et al. (1994) for alkanes. Similarly as for the experiments described above, the hydrophobic substrate was added after 48 h of cultivation.

CCCCCCCCCCCCCCCCO [cetyl alcohol]
glucose consumption rate: 0.38 g/L·h

CCCCCCCCCCCCO [lauryl alcohol]
glucose consumption after addition of the alcohol (addition 48 h after inoculation): stopped
CFUs (log (CFU/mL)) (after addition of the alcohol, 1.8 (w/v) % added after 48 h of cultivation, in contrast to all other fed substrates (FIG. 8A)): significant drop
glucose consumption rate after it initiated again (only Δcyp52M1Δfao1 strain, 100 h after substrate addition, until all glucose was depleted): 0.33 g/L·h

CCCCCCCCCCCCCCO [myristyl alcohol]
glucose consumption rate: 0.48 g/L·h

CCCCCCCC/C=C\CCCCCCCCO [oleyl alcohol]
glucose consumption rate: 0.48 g/L·h

CCCCCCCCCCCCCCCCCCO [stearyl alcohol]
glucose consumption rate: 0.38 g/L·h
